We go through six compounds from patent publication US5714488A, “Bis-heteroarylylmethoxyphenyl ketone derivatives as inhibitors of leukotriene biosynthesis” (Abbott Laboratories, priority 1996, dated 1998).

Where a name gives a salt, the structure may show the parent alone.

The subject of one assay is 5-Lipoxygenase. The assay can be described thus: Inhibition of calcium ionophore-induced LTB4 formation in human polymorphonuclear leukocytes (PMNL). To be noted: 15 min preincubation, calcium ionophore 8.3 μM, 10 min at 37° C., LTB4 by enzyme-linked immunoassay or HPLC, read-out: IC50 (In Vitro Inhibitory Potencies Against 5-Lipoxygenase From Stimulated LTB4 Formation in Human Polymorphonuclear Leukocytes). The class given is cell-based. The method, then: Inhibition of leukotriene biosynthesis was evaluated in vitro using an assay involving calcium ionophore-induced LTB4 expressed in human polymorphornuclear leukocytes (PMNL). Human PMNL isolated from heparinized (20 USP units/mL) venous blood (25 mL) obtained from healthy volunteers was layered over an equal volume of Ficoll-Hypaque Mono-Poly Resolving Medium (ICN Flow, Costa Mesa, CA) and centrifugated at 400×g for 40 minutes at 20° C. The PMNL was collected, erythrocytes lysed and washed 2× and suspended at 1.0×10^7 cells/mL in Earle's balanced salt solution with 17 mM Earle's HEPES. Aliquots of the cell suspension were preincubated with test compounds dissolved in DMSO (final concentration <2%) for 15 minutes and stimulated with calcium ionophore (final concentration 8.3 μM) for 10 min. at 37° C. Incubations were stopped with the addition of two volumes of ice-cold methanol followed by centrifuging the cell suspensions at 4° C. for 10 minutes at 450×g. The amount of LTB4 in the methanol extract was analyzed by enzyme-linked immunoassay or by HPLC analysis.
On to `O=C(O)CON=C(c1ccc(OCc2ccc3ccccc3n2)cc1)c1ccc(OCc2ccc3ccccc3n2)cc1` [Example 1, bis(4-(2-quinolylmethoxy)phenyl)methyloximinoacetic acid], for which the IC50 was 32 nM.
Consider `ON=C(c1ccc(OCc2ccc3ccccc3n2)cc1)c1ccc(OCc2ccc3ccccc3n2)cc1` [Example 2, bis(4-(2-quinolylmethoxy)phenyl) ketoxime], for which the IC50 came to 40 nM.
As to `O=C(O)CON=C(c1ccc(OCc2ccc3ccc(Cl)cc3n2)cc1)c1ccc(OCc2ccc3ccc(Cl)cc3n2)cc1` [Example 6, bis(4-(7-chloro-2-quinolylmethoxy)phenyl)methyloximinoaceticacid], the IC50 turned out to be 220 nM.
For the compound `O=C(O)CON=C(c1ccc(OCc2nc3ccccc3s2)cc1)c1ccc(OCc2nc3ccccc3s2)cc1` [Example 9, bis(4-(2-benzothiazoylmethoxy)-phenyl)methyloximinoacetic acid sodium salt], the IC50 came out at 40 nM.
Same read-out and setting: then `O=C(O)C=C(c1ccc(OCc2ccc3ccccc3n2)cc1)c1ccc(OCc2ccc3ccccc3n2)cc1` [Example 11], with 50 nM; and `O=C(O)CON=CC=C(c1ccc(OCc2ccc3ccccc3n2)cc1)c1ccc(OCc2ccc3ccccc3n2)cc1` [Example 12], with 26 nM.

A further assay relates to leukotriene biosynthesis. The assay can be described thus: In vivo leukotriene inhibition, Ionophore A23187-Induced Rat Pleural Inflammation Model. To be noted: 3.O mg/kg; male rats; dosed in 0.2% methocel one hour prior to intrapleural A23187 (20 μg); lavage after thirty minutes. The method, then:
Inhibition of leukotriene biosynthesis in vivo was evaluated using the Ionophore A23187-Induced Rat Pleural Inflammation Model. Pleural inflammation was induced in male rats following the method of Rao, et al. (Rao, T. S., Currie, J. L., Shaffer, A. F., Isakson, P. C., Evaluation of 5-lipoxygenase Inhibitors, Zileuton, A-78773 and ICI D-2138 in an Ionophore (A-23187) Induced Pleural Inflammation Model in the Rat, Life Sciences, 53, 147 (1993)). Rats were dosed with experimental compounds in 0.2% methocel one hour prior to the intrapleural injection of the calcium ionophore, A23187. The rats where lightly anesthetized with Pentrane (Abbott Laboratories) and injected intrapleurally with 0.5 ml of 2% ethanol in injectable saline (Abbott Laboratories) containing 20 μg of A23187 (Cal BioChem-Novabiochem). Thirty minutes later the animals were euthanised and the pleural cavities lavaged with ice cold saline (Abbott Laboratories). The lavage fluid was then added to ice cold methanol (final methanol concentration 30%) to lyse cells and precipitate protein. Eicosanoids were determined by enzyme immunoassay by standard methods.
Take `O=C(O)CON=CC=C(c1ccc(OCc2ccc3ccccc3n2)cc1)c1ccc(OCc2ccc3ccccc3n2)cc1` [Example 12]: the “% Inhibition (In Vivo Leukotriene Inhibition in Rat Pleural Inflammation)” value is 60%.
